Data from patent US20040019066A1, “Methionine salvage pathway in bacillus” (priority 2002, published 2004).

Key:
[1] = system: Strain BSHP7014 (mtnW:lacZ amyE::pxyl mtnXYZ); experiment: Toxicity of MTR for BSHP7014 strain (paper disc on ED1 minimal medium plates); type: cell-based, Bacillus subtilis
Protocol: Toxicity of MTR for BSHP7014 strain. Strain BSHP7014 (mtnW:lacZ amyE::pxyl mtnXYZ) was grown on ED1 minimal medium plates in the presence of sulfate as sulfur source (panel A) or in the absence of any added sulfur source (agar as sole sulfur source, panel B). Xylose was added to the medium in order to trigger the expression of mtnXYZ from the pxyl promoter, 10 μl of methionine (met) or MTR was adsorbed on paper discs and plates were incubated over-night at 37° C. Methionine was used as a control for growth and/or toxicity of the sulfur source.
Two genes in the pathway are dispensable, mtnV and mtnX. The first one encodes a transaminase of which there are nine putative paralogs in the genome of B. subtilis (YwfG, AlaT, AspB, PatA, YhdR, YdfD, PatB, YisV, and HisC). In the same way, MtnX (YkrX) is a member of the phosphatase family pfam00702 ([12], FIG. 6), and therefore of a ubiquitous class of hydrolases (several phosphatase genes, in particular are present in the genome of B. subtilis). This is likely to account for the lack of phenotype under our growth conditions. […] In contrast, we discovered that MTR is toxic when the distal genes are present (when used as sole sulfur source or in the presence of sulfate, see FIG. 7). Because of the weak phenotype of a mtnZ mutant and the absence of phenotype of a mtnX mutant, we can be confident that MtnY acts before MtnW (this is a common feature in operons, where it is generally observed that the more distal genes code for proteins acting in the more proximate steps of the pathway).
Bacterial strains and plasmids, and growth media: E. coli and B. subtilis strains as well as plasmids used in this work are listed in Table 3. E. coli TG1 and XL1-Blue were used for cloning experiments (TG1 for single cross-over recombination and XL1-Blue for double cross-over recombination). Despite the fact that there are no public regulations yet in this domain in China, all experiments were performed in accordance with the European regulation requirements concerning the contained use of Genetically Modified Organisms of Group-I (French agreement N^o 2735). […] In the latter case, 10 [μl of the sulfur source under investigation was applicated onto paper discs (MTR, 200 mM stock solution and methionine, 100 mM stock solution) deposited at the center of the plate, after bacteria had been uniformly spread at the surface of the plate, and growth was measured around the disK. […] The optical density (OD) of bacterial cultures was measured at 600 nm. […]

[2] = system: B. subtilis 168 and mtn region mutants; experiment: Growth on MTR as sole sulfur source (ED1 minimal medium plates); type: cell-based, Bacillus subtilis; conditions: mtnX mutant, strain BFS1852, in the absence of IPTG

Compound: CSC[C@@H](O)[C@@H](O)[C@@H](O)C=O [MTR, methylthioribose]
- Toxicity of MTR to the cell ([1]; mtnU mutant, mtnY functional): toxic
- Influence of MTR on sulfate supplemented plates ([1]; mtnW inactivated with a polar effect on the distal genes): lack of influence
- Toxicity of MTR to the cell ([1]; mtnW mutant with distal genes mtnXYZ present, MTR as sole sulfur source or in the presence of sulfate): extremely toxic
- Growth on MTR as sole sulfur source [2]: failed to grow
